Data reported in ChEMBL document CHEMBL5356966, “A dual mechanism with H2S inhibition and membrane damage of morusin from Morus alba Linn. against MDR-MRSA” (2024).
Converted amounts (≈) assume the structure as drawn. The source made the active and inactive calls. The calls are words filed in the database; no cut-off is given here.

What was measured:
Staphylococcus aureus [1] = experiment: Antibacterial activity methicillin-resistant Staphylococcus aureus 011 assessed as inhibition of bacterial growth incubated for 24 hrs by CLSI based analysis; type: functional
Staphylococcus aureus [2] = experiment: Antibacterial activity Staphylococcus aureus assessed as inhibition of bacterial growth incubated for 24 hrs by CLSI based analysis; type: functional
Cell membrane [3] = experiment: Disruption of bacterial cell membrane in methicilin-resistant Staphylococcus aureus 003 assessed as increase in green fluorescence intensity incubated for 1 hr by DAPI/PI staning based confocal laser microscopic analysis
Enterococcus [4] = experiment: Antibacterial activity vancomycin-resistant Enterococcus assessed as inhibition of bacterial growth incubated for 24 hrs by CLSI based analysis; type: functional
Staphylococcus aureus [5] = experiment: Antibacterial activity methicillin-resistant Staphylococcus aureus 003 assessed as inhibition of bacterial growth incubated for 24 hrs by CLSI based analysis; type: functional
Staphylococcus aureus [6] = experiment: Induction of resistance development Staphylococcus aureus incubated for 24 hrs treated over 11 serial passages by broth microdilution analysis; type: functional, organism-based
Staphylococcus aureus [7] = experiment: Antibacterial activity methicillin-resistant Staphylococcus aureus 003 assessed as downregulation of fabH expression by qRT-PCR analysis; type: functional, organism-based
Staphylococcus aureus [8] = experiment: Induction of resistance development in methicilin-resistant Staphylococcus aureus incubated for 24 hrs treated over 20 serial passages by broth microdilution analysis; type: functional, organism-based
Staphylococcus aureus [9] = experiment: Antibacterial activity methicillin-resistant Staphylococcus aureus 003 assessed as decrease in membrane fluidity incubated for 50 mins; type: functional, organism-based
Staphylococcus aureus [10] = experiment: Antibacterial activity methicillin-resistant Staphylococcus aureus 003 assessed as downregulation of fabF expression by qRT-PCR analysis; type: functional, organism-based
Staphylococcus aureus [11] = experiment: Bactericidal activity methicillin-resistant Staphylococcus aureus 003 assessed as inhibition of bacterial growth incubated for 24 hrs by CLSI based analysis; type: functional
Enterococcus [12] = experiment: Bactericidal activity vancomycin-resistant Enterococcus assessed as inhibition of bacterial growth incubated for 24 hrs by CLSI based analysis; type: functional
Acinetobacter baumannii = experiment: Antibacterial activity Acinetobacter baumannii assessed as inhibition of bacterial growth incubated for 24 hrs by CLSI based analysis; type: functional
Enterococcus [13] = experiment: Antibacterial activity vancomycin-resistant Enterococcus assessed as decrease in intracellular pH at 4 time MIC measured up to 74 mins; type: functional, organism-based
Staphylococcus aureus [14] = experiment: Antibacterial activity methicillin-resistant Staphylococcus aureus 003 assessed as increase in fluorescence intensity at 1 time MIC; type: functional
Cell membrane [15] = experiment: Induction of inner membrane permeability in vancomycin-resistant Enterococcus assessed as increase in fluorescence intensity incubated for 30 mins
Staphylococcus aureus [16] = experiment: Bactericidal activity methicillin-resistant Staphylococcus aureus 011 assessed as inhibition of bacterial growth incubated for 24 hrs by CLSI based analysis; type: functional
Staphylococcus aureus [17] = experiment: In vivo antibacterial activity against methicilin-resistant Staphylococcus aureus infected in ICR mouse skin infection model assessed as wound area at 20 mg/kg, ip preadministered with compound for 24 hrs followed by bacterial infection and measured after 3 days; type: functional; conditions: time 96 hrs
Staphylococcus aureus [18] = experiment: Bactericidal activity Staphylococcus aureus assessed as inhibition of bacterial growth incubated for 24 hrs by CLSI based analysis; type: functional
Staphylococcus aureus [19] = experiment: Antibacterial activity methicillin-resistant Staphylococcus aureus 003 assessed as inhibition of H2S production at 1/4 to 1/8 times MIC; type: functional, organism-based
Cell membrane [20] = experiment: Induction of inner membrane permeability in methicillin-resistant Staphylococcus aureus 003 assessed as fold change in MIC in presence of cardiolipin; type: subcellular
Cell membrane [21] = experiment: Disruption of bacterial cell membrane in methicilin-resistant Staphylococcus aureus 003 assessed as as appearance of wrinkled cell incubated for 1 hr by DAPI/PI staning based confocal laser microscopic analysis; type: subcellular
Staphylococcus aureus [22] = experiment: Bactericidal activity against methicilin-resistant Staphylococcus aureus 003 at 8 times MIC measured after 24 hrs by time kill assay; type: functional, organism-based
Staphylococcus aureus [23] = experiment: Antibacterial activity methicillin-resistant Staphylococcus aureus 003 assessed as increase in fluorescence intensity by DiSC3(5) dye based analysis; type: functional, organism-based
Staphylococcus aureus [24] = experiment: In vivo antibacterial activity against methicilin-resistant Staphylococcus aureus infected in ICR mouse skin infection model assessed as wound area at 5 mg/kg, ip preadministered with compound for 24 hrs followed by bacterial infection and measured after 3 days; type: functional; conditions: time 96 hrs
Staphylococcus aureus [25] = experiment: Antibacterial activity methicillin-resistant Staphylococcus aureus 003 assessed as downregulation of fabZ expression by qRT-PCR analysis; type: functional, organism-based
Staphylococcus aureus [26] = experiment: Antibacterial activity methicillin-resistant Staphylococcus aureus 003 assessed as downregulation of fabG expression by qRT-PCR analysis; type: functional, organism-based
Staphylococcus aureus [27] = experiment: Antibacterial activity methicillin-resistant Staphylococcus aureus 003 assessed as increase in intracellular ATP level incubated for 30 mins; type: functional, organism-based
Staphylococcus aureus [28] = experiment: Antibacterial activity methicillin-resistant Staphylococcus aureus 003 assessed as ROS accumulation at 2 to 8 times MIC incubated for 60 mins; type: functional, organism-based
Staphylococcus aureus [29] = experiment: In vivo antibacterial activity against methicilin-resistant Staphylococcus aureus infected in ICR mouse skin infection model assessed as wound area at 10 mg/kg, ip preadministered with compound for 24 hrs followed by bacterial infection and measured after 3 days; type: functional; conditions: time 96 hrs
Staphylococcus aureus [30] = experiment: Bactericidal activity against methicilin-resistant Staphylococcus aureus 003 at 2 to 4 times MIC measured after 24 hrs by time kill assay; type: functional, organism-based
Staphylococcus aureus [31] = experiment: Antibacterial activity methicillin-resistant Staphylococcus aureus 003 assessed as inhibition of H2S production at 1/4 times MIC; type: functional
Staphylococcus aureus [32] = experiment: In vivo antibacterial activity against methicilin-resistant Staphylococcus aureus infected in ICR mouse skin infection model assessed as reduction in bacterial burden at 5 mg/kg, ip preadministered with compound for 24 hrs followed by bacterial infection and measured after 3 days; type: functional; set-up: scale not given: the % may be the effect or the level left; conditions: time 96 hrs
Staphylococcus aureus [33] = experiment: Antibacterial activity methicillin-resistant Staphylococcus aureus 003 assessed as downregulation of fabD expression by qRT-PCR analysis; type: functional, organism-based
Staphylococcus aureus [34] = experiment: Bactericidal activity against Staphylococcus aureus at 2 to 4 times MIC measured after 30 mins by time kill assay; type: functional, organism-based
Escherichia coli = experiment: Antibacterial activity Escherichia coli assessed as inhibition of bacterial growth incubated for 24 hrs by CLSI based analysis; type: functional
Staphylococcus aureus [35] = experiment: Antibacterial activity methicillin-resistant Staphylococcus aureus 003 assessed as decrease in intracellular pH at 4 time MIC measured up to 74 mins; type: functional, organism-based
Enterococcus [36] = experiment: Antibacterial activity vancomycin-resistant Enterococcus under […] condition at pH 5.5 to 9.5; type: functional, organism-based
Cell membrane [37] = experiment: Disruption of bacterial cell membrane in vancomycin-resistant Enterococcus assessed as as appearance of wrinkled cell incubated for 1 hr by DAPI/PI staning based confocal laser microscopic analysis
Cell membrane [38] = experiment: Induction of inner membrane permeability in methicillin-resistant Staphylococcus aureus 003 assessed as fold change in MIC in presence of phosphatidylglycerol; type: subcellular
Staphylococcus aureus [39] = experiment: Bactericidal activity against Staphylococcus aureus at 2 to 4 times MIC measured after 24 hrs by time kill assay; type: functional, organism-based
Staphylococcus aureus [40] = experiment: In vivo antibacterial activity against methicilin-resistant Staphylococcus aureus infected in ICR mouse skin infection model assessed as reduction in bacterial burden at 20 mg/kg, ip preadministered with compound for 24 hrs followed by bacterial infection and measured after 3 days; type: functional; set-up: scale not given: the % may be the effect or the level left; conditions: time 96 hrs
Staphylococcus aureus [41] = experiment: Induction of resistance development in methicilin-resistant Staphylococcus aureus 003 incubated for 24 hrs treated over 11 serial passages by broth microdilution analysis; type: functional, organism-based
Staphylococcus aureus [42] = experiment: Antibacterial activity methicillin-resistant Staphylococcus aureus 003 assessed as increase in fluorescence intensity at 4 time MIC; type: functional
Staphylococcus aureus [43] = experiment: Antibacterial activity methicillin-resistant Staphylococcus aureus 003 assessed as downregulation of plsY expression by qRT-PCR analysis; type: functional, organism-based
Staphylococcus aureus [44] = experiment: Induction of resistance development in Staphylococcus aureus incubated for 24 hrs treated over 20 serial passages by broth microdilution analysis; type: functional, organism-based
Staphylococcus aureus [45] = experiment: Antibacterial activity methicillin-resistant Staphylococcus aureus 003 under […] condition at pH 5.5 to 9.5; type: functional, organism-based
Cell membrane [46] = experiment: Induction of inner membrane permeability in methicillin-resistant Staphylococcus aureus 003 assessed as fold change in MIC in presence of phosphatidylethanolamine; type: subcellular
Cell membrane [47] = experiment: Induction of inner membrane permeability in methicillin-resistant Staphylococcus aureus 003 assessed as fold change in MIC in presence of peptidoglycan; type: subcellular
Staphylococcus aureus [48] = experiment: In vivo antibacterial activity against methicilin-resistant Staphylococcus aureus infected in ICR mouse skin infection model assessed as reduction in bacterial burden at 10 mg/kg, ip preadministered with compound for 24 hrs followed by bacterial infection and measured after 3 days; type: functional; set-up: scale not given: the % may be the effect or the level left; conditions: time 96 hrs
Cell membrane [49] = experiment: Induction of inner membrane permeability in Escherichia coli assessed as increase in fluorescence intensity measured for 15 mins in presence of Polymyxin B sulfate
Cell membrane [50] = experiment: Induction of inner membrane permeability in methicillin-resistant Staphylococcus aureus 003 assessed as increase in fluorescence intensity incubated for 30 mins
Staphylococcus aureus [51] = experiment: Antibacterial activity methicillin-resistant Staphylococcus aureus 003 assessed as inhibition of H2S production at 50 uM; type: functional
Staphylococcus aureus [52] = experiment: Bactericidal activity against methicilin-resistant Staphylococcus aureus 003 at 4 times MIC measured after 24 hrs by time kill assay; type: functional, organism-based
Cell membrane [53] = experiment: Disruption of bacterial cell membrane in methicilin-resistant Staphylococcus aureus 003 assessed as increase in red fluorescence intensity incubated for 1 hr by DAPI/PI staning based confocal laser microscopic analysis
Staphylococcus aureus [54] = experiment: Bactericidal activity against Staphylococcus aureus at 4 times MIC measured after 24 hrs by time kill assay; type: functional, organism-based

## C[C@@H](O)[C@H]1C(=O)N2C(C(=O)O)=C(S[C@@H]3CN[C@H](C(=O)N(C)C)C3)[C@H](C)[C@H]12 [MEROPENEM]
Staphylococcus aureus [1]
  MIC: > 128 µg/mL
Staphylococcus aureus [2]
  MIC: 2 µg/mL (≈ 5.22 µM)
Cell membrane [3]
  Activity: Active
Enterococcus [4]
  MIC: 8 µg/mL (≈ 20.9 µM)
Staphylococcus aureus [5]
  MIC: > 128 µg/mL

## CC(C)=CCc1c(-c2ccc(O)cc2O)oc2c3c(cc(O)c2c1=O)OC(C)(C)C=C3 [MORUSIN]
Staphylococcus aureus [6]
  Activity: Active
Staphylococcus aureus [7]
  Activity: Active
Staphylococcus aureus [8]
  Activity: inactive
Staphylococcus aureus [9]
  Activity: Dose-Dependent Effect
Staphylococcus aureus [10]
  Activity: Active
Staphylococcus aureus [11]
  MBC: 16 µg/mL (≈ 38.1 µM)
Enterococcus [12]
  MBC: 16 µg/mL (≈ 38.1 µM)
Acinetobacter baumannii
  MIC: > 512 µg/mL
Enterococcus [13]
  Activity: Active
Staphylococcus aureus [14]
  Flu intensity: 334
Cell membrane [15]
  Activity: Dose-Dependent Effect
Staphylococcus aureus [16]
  MBC: 16 µg/mL (≈ 38.1 µM)
Staphylococcus aureus [17]
  Activity: 0.1 cm2
Staphylococcus aureus [18]
  MBC: 8 µg/mL (≈ 19 µM)
Staphylococcus aureus [19]
  inhibition: Active
Cell membrane [20]
  fold change (FC): 8
Cell membrane [21]
  Activity: Active
Staphylococcus aureus [22]
  Activity: Active
Staphylococcus aureus [23]
  Activity: Dose-Dependent Effect
Staphylococcus aureus [24]
  Activity: 0.3 cm2
Staphylococcus aureus [25]
  Activity: Active
Staphylococcus aureus [26]
  Activity: Active
Staphylococcus aureus [1]
  MIC: 8 µg/mL (≈ 19 µM)
Staphylococcus aureus [27]
  Activity: Dose-Dependent Effect
Staphylococcus aureus [28]
  Activity: Active
Staphylococcus aureus [29]
  Activity: 0.16 cm2
Staphylococcus aureus [2]
  MIC: 4 µg/mL (≈ 9.51 µM)
Staphylococcus aureus [30]
  Activity: Active
Staphylococcus aureus [31]
  inhibition (INH): 12%
Staphylococcus aureus [32]
  Activity: 50%
Staphylococcus aureus [33]
  Activity: Active
Staphylococcus aureus [34]
  Activity: Active
Escherichia coli
  MIC: > 512 µg/mL
Staphylococcus aureus [35]
  Activity: Active
Enterococcus [36]
  Activity: Active
Cell membrane [37]
  Activity: Active
Cell membrane [38]
  fold change (FC): 8
Staphylococcus aureus [39]
  Activity: Active
Staphylococcus aureus [40]
  Activity: 90%
Staphylococcus aureus [41]
  Activity: Active
Staphylococcus aureus [42]
  Flu intensity: 354
Staphylococcus aureus [43]
  Activity: Active
Staphylococcus aureus [44]
  Activity: inactive
Staphylococcus aureus [45]
  Activity: Active
Enterococcus [4]
  MIC: 8 µg/mL (≈ 19 µM)
Staphylococcus aureus [5]
  MIC: 4 µg/mL (≈ 9.51 µM)
Cell membrane [46]
  fold change (FC): 32
Cell membrane [47]
  Activity: inactive
Staphylococcus aureus [48]
  Activity: 80%
Cell membrane [49]
  Flu intensity: 0.9
Cell membrane [50]
  Activity: Dose-Dependent Effect

## CCc1ccc(CCOc2ccc(CC3SC(=O)NC3=O)cc2)nc1 (configuration not stated) [PIOGLITAZONE]
Staphylococcus aureus [51]
  inhibition at 50 µM: 54%

## CN[C@H](CC(C)C)C(=O)N[C@H]1C(=O)N[C@@H](CC(N)=O)C(=O)N[C@H]2C(=O)N[C@H]3C(=O)N[C@H](C(=O)N[C@H](C(=O)O)c4cc(O)cc(O)c4-c4cc3ccc4O)[C@H](O)c3ccc(c(Cl)c3)Oc3cc2cc(c3O[C@@H]2O[C@H](CO)[C@@H](O)[C@H](O)[C@H]2O[C@H]2C[C@](C)(N)[C@H](O)[C@H](C)O2)Oc2ccc(cc2Cl)[C@H]1O [VANCOMYCIN]
Staphylococcus aureus [52]
  Activity: inactive
Staphylococcus aureus [24]
  Activity: 0.16 cm2
Cell membrane [53]
  Activity: Active
Staphylococcus aureus [54]
  Activity: inactive
Enterococcus [4]
  MIC: 64 µg/mL (≈ 44.2 µM)
